Assay in all cases: TGFα-shedding assay-based GPCR screening with chimeric Gα subunit proteins
Holding throughout (format): cell-based

For assay [1], the target named is T1, 348 GPCRs (Homo sapiens, UniProt Q9Y5Y3).
T1 construct: expressed in transfected cells; host or cells: HEK293A

Assay [2] deals with T2, 348 GPCRs (Homo sapiens, UniProt P43119).
T2 construct: expressed in transfected cells; host or cells: HEK293A
As to conditions: 10µM, Favipiravir 100μM.

Assay [3] has as its target T3, 348 GPCRs (Homo sapiens, UniProt P33032).
T3 construct: expressed in transfected cells; host or cells: HEK293A

For assay [4], the target named is T4, 348 GPCRs (Homo sapiens, UniProt P21730).
T4 construct: expressed in transfected cells; host or cells: HEK293A
T4 sequence (P21730 1-350): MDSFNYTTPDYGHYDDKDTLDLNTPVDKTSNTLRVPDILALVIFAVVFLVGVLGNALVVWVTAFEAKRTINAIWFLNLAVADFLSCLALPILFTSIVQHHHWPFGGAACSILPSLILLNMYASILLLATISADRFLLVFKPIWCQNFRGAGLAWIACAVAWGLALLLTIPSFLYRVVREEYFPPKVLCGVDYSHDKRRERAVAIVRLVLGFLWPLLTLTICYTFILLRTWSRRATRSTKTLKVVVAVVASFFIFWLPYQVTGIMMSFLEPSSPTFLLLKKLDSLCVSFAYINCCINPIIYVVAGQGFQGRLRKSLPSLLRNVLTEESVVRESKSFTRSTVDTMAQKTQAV
The conditions noted are these: 10µM, Favipiravir 100μM.

The target of assay [5] is T5, 348 GPCRs (Homo sapiens, UniProt P41968).
T5 construct: expressed in transfected cells; host or cells: HEK293A
T5 sequence (P41968 whole entry): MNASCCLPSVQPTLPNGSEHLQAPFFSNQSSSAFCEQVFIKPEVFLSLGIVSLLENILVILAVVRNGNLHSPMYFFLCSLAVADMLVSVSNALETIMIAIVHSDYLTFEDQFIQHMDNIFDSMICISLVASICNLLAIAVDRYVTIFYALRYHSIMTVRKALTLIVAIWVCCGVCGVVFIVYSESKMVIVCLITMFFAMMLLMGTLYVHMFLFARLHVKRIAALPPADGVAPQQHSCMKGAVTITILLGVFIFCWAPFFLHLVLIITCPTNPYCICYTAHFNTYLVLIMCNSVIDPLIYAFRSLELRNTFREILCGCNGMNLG

Assay [6] addresses T6, 348 GPCRs (Homo sapiens, UniProt Q9NYW0).
T6 construct: expressed in transfected cells; host or cells: HEK293A
T6 sequence (Q9NYW0 1-307): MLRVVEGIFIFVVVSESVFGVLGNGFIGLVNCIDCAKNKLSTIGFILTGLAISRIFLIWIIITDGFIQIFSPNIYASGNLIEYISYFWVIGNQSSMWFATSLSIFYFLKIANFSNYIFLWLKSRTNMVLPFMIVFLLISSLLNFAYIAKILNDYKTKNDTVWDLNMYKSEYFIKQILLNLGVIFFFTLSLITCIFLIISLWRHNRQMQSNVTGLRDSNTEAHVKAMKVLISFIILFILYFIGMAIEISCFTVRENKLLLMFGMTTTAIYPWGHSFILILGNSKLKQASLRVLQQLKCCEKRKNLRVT
As to conditions: 10µM, Favipiravir 100μM.

The target in assay [7] is 348 GPCRs (Homo sapiens, UniProt P41143). The conditions noted are these: read-out: % GPCR activation compared to TPA, OPRD1 (opioid receptor, delta 1 (DOR)); 10µM, Favipiravir 100μM.
348 GPCRs (Homo sapiens, UniProt P41143), sequence (P41143 whole entry): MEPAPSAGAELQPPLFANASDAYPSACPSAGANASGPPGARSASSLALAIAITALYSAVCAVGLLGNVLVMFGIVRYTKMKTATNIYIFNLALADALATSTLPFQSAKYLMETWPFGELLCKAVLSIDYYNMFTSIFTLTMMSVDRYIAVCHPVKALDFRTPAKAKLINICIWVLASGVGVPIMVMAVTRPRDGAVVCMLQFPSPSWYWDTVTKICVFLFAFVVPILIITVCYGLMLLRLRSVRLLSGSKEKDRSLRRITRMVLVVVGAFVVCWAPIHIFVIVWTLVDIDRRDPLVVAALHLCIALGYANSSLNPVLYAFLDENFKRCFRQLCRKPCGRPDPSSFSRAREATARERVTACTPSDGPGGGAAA
The target in assay [8] is T7, 348 GPCRs (Homo sapiens, UniProt O00590).
T7 construct: expressed in transfected cells; host or cells: HEK293A
T7 sequence (O00590 1-384): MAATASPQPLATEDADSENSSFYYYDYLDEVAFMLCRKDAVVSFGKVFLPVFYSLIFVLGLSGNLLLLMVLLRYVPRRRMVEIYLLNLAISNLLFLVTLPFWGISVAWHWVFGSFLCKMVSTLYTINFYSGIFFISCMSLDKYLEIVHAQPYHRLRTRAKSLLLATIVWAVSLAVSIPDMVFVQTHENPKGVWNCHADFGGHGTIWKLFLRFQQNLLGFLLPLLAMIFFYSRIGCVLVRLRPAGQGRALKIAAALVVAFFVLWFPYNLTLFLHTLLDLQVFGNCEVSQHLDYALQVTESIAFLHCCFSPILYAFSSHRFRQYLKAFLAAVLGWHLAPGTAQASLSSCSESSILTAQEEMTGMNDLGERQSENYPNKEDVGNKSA
The conditions noted are these: 10µM, Favipiravir 100μM.

Assay [9] addresses T8, 348 GPCRs (Homo sapiens, UniProt Q9ULV1).
T8 construct: expressed in transfected cells; host or cells: HEK293A
T8 sequence (Q9ULV1 37-537): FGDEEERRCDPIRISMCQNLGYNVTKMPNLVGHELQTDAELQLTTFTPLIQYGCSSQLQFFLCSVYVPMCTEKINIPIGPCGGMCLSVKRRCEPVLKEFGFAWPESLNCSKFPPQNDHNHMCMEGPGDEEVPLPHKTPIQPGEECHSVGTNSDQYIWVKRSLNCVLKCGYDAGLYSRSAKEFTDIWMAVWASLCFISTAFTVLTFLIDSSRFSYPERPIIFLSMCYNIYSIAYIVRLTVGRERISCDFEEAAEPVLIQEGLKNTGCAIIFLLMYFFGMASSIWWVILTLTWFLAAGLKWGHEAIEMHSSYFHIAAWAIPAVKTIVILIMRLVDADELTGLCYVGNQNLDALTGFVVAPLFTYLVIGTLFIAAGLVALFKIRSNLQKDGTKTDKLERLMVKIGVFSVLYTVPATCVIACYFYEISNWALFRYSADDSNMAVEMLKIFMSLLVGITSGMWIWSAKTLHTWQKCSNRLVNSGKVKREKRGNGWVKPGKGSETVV
As to conditions: 10µM, Favipiravir 100μM.

Assay [10] deals with T9, 348 GPCRs (Homo sapiens, UniProt Q96RI9).
T9 construct: expressed in transfected cells; host or cells: HEK293A
T9 sequence (Q96RI9 1-348): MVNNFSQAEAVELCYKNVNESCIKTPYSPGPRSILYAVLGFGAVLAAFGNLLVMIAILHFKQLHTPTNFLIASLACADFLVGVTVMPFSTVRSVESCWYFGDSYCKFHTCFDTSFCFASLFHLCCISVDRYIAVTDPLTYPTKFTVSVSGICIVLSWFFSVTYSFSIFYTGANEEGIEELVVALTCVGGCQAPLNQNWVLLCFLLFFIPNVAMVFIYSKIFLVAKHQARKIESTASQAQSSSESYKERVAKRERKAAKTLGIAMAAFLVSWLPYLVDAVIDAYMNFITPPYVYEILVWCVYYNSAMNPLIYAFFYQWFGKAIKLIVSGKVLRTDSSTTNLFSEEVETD
As to conditions: 10µM, Favipiravir 100μM.

Where [11] appears, read: read-out: % GPCR activation compared to TPA, GPCR GPR45 (G Protein-Coupled Receptor 45).
Setting [12] is: read-out: % GPCR activation compared to TPA, IP (prostaglandin I2 (prostacyclin) receptor).
The mark [13] stands for this setting: read-out: % GPCR activation compared to TPA, GPCR MC5R (melanocortin 5 receptor).
Where [14] appears, read: read-out: % GPCR activation compared to TPA, C5AR1 (complement C5a receptor 1).
Where [15] appears, read: read-out: % GPCR activation compared to TPA, GPCR MC3R (melanocortin 3 receptor).
The mark [16] stands for this setting: read-out: % GPCR activation compared to TPA, TAS2R10 (taste receptor, type 2, member 10).
The mark [17] stands for this setting: read-out: % GPCR activation compared to TPA, CCBP2 (chemokine binding protein 2).
[18] abbreviates: read-out: % GPCR activation compared to TPA, FZD4 (frizzled family receptor 4).
Setting [19] is: read-out: % GPCR activation compared to TPA, TAAR9 (trace amine associated receptor 9).
The mark [20] stands for this setting: IP (prostaglandin I2 (prostacyclin) receptor), read-out: % GPCR activation compared to TPA.
The mark [21] stands for this setting: C5AR1 (complement C5a receptor 1), read-out: % GPCR activation compared to TPA.
Setting [22] is: TAS2R10 (taste receptor, type 2, member 10), read-out: % GPCR activation compared to TPA.
[23] abbreviates: CCBP2 (chemokine binding protein 2), read-out: % GPCR activation compared to TPA.
Where [24] appears, read: FZD4 (frizzled family receptor 4), read-out: % GPCR activation compared to TPA.
[25] abbreviates: TAAR9 (trace amine associated receptor 9), read-out: % GPCR activation compared to TPA.
[26] abbreviates: GPCR GPR45 (G Protein-Coupled Receptor 45), read-out: % GPCR activation compared to TPA.
Where [27] appears, read: GPCR MC5R (melanocortin 5 receptor), read-out: % GPCR activation compared to TPA.
The mark [28] stands for this setting: GPCR MC3R (melanocortin 3 receptor), read-out: % GPCR activation compared to TPA.

Like-named read-outs stand apart in the source and are kept apart here.

T1 sequence (Q9Y5Y3 whole entry): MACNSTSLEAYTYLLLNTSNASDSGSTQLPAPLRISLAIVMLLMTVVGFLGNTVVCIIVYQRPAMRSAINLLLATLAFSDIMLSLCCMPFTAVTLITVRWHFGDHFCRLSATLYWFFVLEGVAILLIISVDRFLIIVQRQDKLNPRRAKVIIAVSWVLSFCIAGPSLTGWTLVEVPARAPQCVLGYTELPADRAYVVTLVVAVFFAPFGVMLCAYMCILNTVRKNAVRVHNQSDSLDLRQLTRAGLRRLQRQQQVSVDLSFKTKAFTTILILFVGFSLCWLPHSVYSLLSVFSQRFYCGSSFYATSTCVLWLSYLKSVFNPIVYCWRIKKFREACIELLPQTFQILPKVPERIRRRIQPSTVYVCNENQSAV
T3 sequence (P33032 whole entry): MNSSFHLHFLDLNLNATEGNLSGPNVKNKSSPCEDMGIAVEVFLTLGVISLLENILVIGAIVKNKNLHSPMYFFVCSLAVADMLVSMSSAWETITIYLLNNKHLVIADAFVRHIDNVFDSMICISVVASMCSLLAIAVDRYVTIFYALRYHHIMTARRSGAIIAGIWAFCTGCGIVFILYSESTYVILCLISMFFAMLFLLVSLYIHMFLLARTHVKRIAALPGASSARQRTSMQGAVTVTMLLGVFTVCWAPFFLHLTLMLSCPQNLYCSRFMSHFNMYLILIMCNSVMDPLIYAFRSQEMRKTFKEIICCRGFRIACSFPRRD
T2 sequence (P43119 whole entry): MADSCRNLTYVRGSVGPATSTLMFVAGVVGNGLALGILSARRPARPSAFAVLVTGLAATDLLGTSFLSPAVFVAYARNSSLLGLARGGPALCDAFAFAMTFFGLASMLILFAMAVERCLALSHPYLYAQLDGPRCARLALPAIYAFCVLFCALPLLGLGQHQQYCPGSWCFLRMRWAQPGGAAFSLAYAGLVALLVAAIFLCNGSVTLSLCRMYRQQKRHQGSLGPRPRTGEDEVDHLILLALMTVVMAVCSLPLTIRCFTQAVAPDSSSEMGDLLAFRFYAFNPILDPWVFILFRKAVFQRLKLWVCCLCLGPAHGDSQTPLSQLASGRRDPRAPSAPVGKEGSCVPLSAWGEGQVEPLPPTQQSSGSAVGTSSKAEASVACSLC

`CC(C)OC(=O)[C@H](C)N[P@](=O)(OC[C@H]1O[C@@H](n2ccc(=O)[nH]c2=O)[C@](C)(F)[C@@H]1O)Oc1ccccc1` [sofosbuvir]: the activation at 10 µM was 0.955% in assay [1] (setting [11]), -2.87% in [3] (setting [13]), -2.89% in assay [4] (setting [14]) and -3.13% in assay [5] (setting [15]). Besides, the activation at 100 µM in assay [2] (setting [12]) is -1.51%; in assay [6] (setting [16]), -0.149%; in assay [7], -2.64%; in [8] (setting [17]), -0.681%; in assay [9] (setting [18]), -0.222%; in assay [10] (setting [19]) it was -1.74%.

Consider `NC(=O)c1nc(F)cnc1O` [favipiravir, 6-fluoro-3-hydroxy-2-pyrazinecarboxamide], for which the activation at 100 µM in assay [1] (GPCR GPR45 (G Protein-Coupled Receptor 45), 100μM, read-out: % GPCR activation compared to TPA) is -0.546%; in [2] (setting [20]), -2.05%; in [3] (GPCR MC5R (melanocortin 5 receptor), 100μM, read-out: % GPCR activation compared to TPA), -0.921%; in assay [5] (GPCR MC3R (melanocortin 3 receptor), 100μM, read-out: % GPCR activation compared to TPA), 0.3%; in [6] (setting [22]) it was 1.23%; in [7], -3.28%. For the same compound, the activation at 100 µM is -6.14% in [8] (setting [23]), 0.755% in [9] (setting [24]) and -0.821% in [10] (setting [25]). Besides, in [4] (setting [21]), the activation at 10 µM was -6.83%.

Take `CCC(CC)COC(=O)[C@H](C)N[P@](=O)(OC[C@H]1O[C@@](C#N)(c2ccc3c(N)ncnn23)[C@H](O)[C@@H]1O)Oc1ccccc1` [remdesivir]: the activation at 10 µM in [1] (setting [11]) was 0.315%; in assay [3] (setting [13]), 1.31%; in assay [4] (setting [14]) it was -1.43%; in [5] (setting [15]) it was 1.7%. For the same compound, the activation at 100 µM in assay [2] (setting [12]) is -0.107%; in [6] (setting [16]), 1.89%; in assay [7], -3.05%; in assay [8] (setting [17]), -7.69%; in assay [9] (setting [18]), 3.99%; in [10] (setting [19]) it was 0.293%.

Turning to `N#C[C@@]1(c2ccc3c(N)ncnn23)O[C@H](CO)[C@@H](O)[C@H]1O` [GS441524], the activation at 10 µM was -0.0256% in [1] (setting [26]), 0.908% in [3] (setting [27]), -2.17% in assay [4] (setting [21]) and 2.26% in [5] (setting [28]). The activation at 100 µM in [2] (setting [20]) was -1.08%; in [6] (setting [22]), 0.66%; in [7], -2.68%; in assay [8] (setting [23]), -3.26%; in assay [9] (setting [24]), 4.3%; in [10] (setting [25]), -2.32%.

On to `CC(C)C(=O)OC[C@H]1O[C@@H](n2ccc(NO)nc2=O)[C@H](O)[C@@H]1O` [molnupiravir], for which the activation at 10 µM is 0.592% in [1] (setting [26]), -1.47% in assay [3] (setting [27]), -2.78% in assay [4] (setting [21]) and -4.7% in assay [5] (setting [28]). Moreover, the activation at 100 µM in assay [2] (setting [20]) was -1.76%; in [6] (setting [22]), -0.25%; in assay [7] it was -1.93%; in assay [8] (setting [23]), -0.55%; in [9] (setting [24]) it was 1.08%; in assay [10] (setting [25]), -1.9%.
